According to patent US20160009693A1, “HERBICIDAL COMPOUNDS” (SYNGENTA LIMITED, priority 2013, published 2016):

Experiments:
Assay type in all cases: in vivo
Conditions in all cases: applied at 1000 g/h, evaluated after 13 days
[1] = tested on: Echinochloa crus-galli (ECHCG); assay: Herbicidal glasshouse test, post-emergence, ECHCG
Description: (§1) Seeds of a variety of test species are sown in standard soil in pots (Alopecurus myosuroides (ALOMY), Setaria faberi (SETFA), Echinochloa crus-galli (ECHCG), Solanum nigrum (SOLNI), Amaranthus retoflexus (AMARE), Ipomoea hederacea (IPOHE)). After cultivation for one day (pre-emergence) or after 8 days cultivation (post-emergence) under controlled conditions in a glasshouse (at 24/16° C., day/night; 14 hours light; 65% humidity), the plants are sprayed with an aqueous spray solution derived from the formulation of the technical active ingredient in acetone / water (50:50) solution containing 0.5% Tween 20 (polyoxyethelyene sorbitan monolaurate, CAS RN 9005-64-5). […] The test plants are then grown in a glasshouse under controlled conditions in a glasshouse (at 24/16° C., day/night; 14 hours light; 65% humidity) and watered twice daily. After 13 days for pre and post-emergence, the test is evaluated for the percentage damage caused to the plant. The biological activities are shown in the following table on a five point scale (5=80-100%; 4=60-79%; 3=40-59%; 2=20-39%; 1=0-19%).

[2] = tested on: Amaranthus retoflexus (AMARE); assay: Herbicidal glasshouse test, post-emergence, AMARE
Description: as §1

[3] = tested on: Alopecurus myosuroides (ALOMY); assay: Herbicidal glasshouse test, post-emergence, ALOMY
Description: as §1

[4] = tested on: Ipomoea hederacea (IPOHE); assay: Herbicidal glasshouse test, pre-emergence, IPOHE
Description: as §1

[5] = tested on: Amaranthus retoflexus (AMARE); assay: Herbicidal glasshouse test, pre-emergence, AMARE
Description: as §1

Setaria faberi (SETFA) [6] = assay: Herbicidal glasshouse test, post-emergence, SETFA
Description: as §1

[7] = tested on: Ipomoea hederacea (IPOHE); assay: Herbicidal glasshouse test, post-emergence, IPOHE
Description: as §1

[8] = tested on: Echinochloa crus-galli (ECHCG); assay: Herbicidal glasshouse test, pre-emergence, ECHCG
Description: as §1

[9] = tested on: Alopecurus myosuroides (ALOMY); assay: Herbicidal glasshouse test, pre-emergence, ALOMY
Description: as §1

Solanum nigrum (SOLNI) [10] = assay: Herbicidal glasshouse test, post-emergence, SOLNI
Description: as §1

Solanum nigrum (SOLNI) [11] = assay: Herbicidal glasshouse test, pre-emergence, SOLNI
Description: as §1

Setaria faberi (SETFA) [12] = assay: Herbicidal glasshouse test, pre-emergence, SETFA
Description: as §1

| Compound | POST Application ECHCG, percentage damage (five point scale) [1] | POST Application AMARE, percentage damage (five point scale) [2] | POST Application ALOMY, percentage damage (five point scale) [3] | PRE Application IPOHE, percentage damage (five point scale) [4] | PRE Application AMARE, percentage damage (five point scale) [5] | POST Application SETFA, percentage damage (five point scale) (Setaria faberi (SETFA) [6]) | POST Application IPOHE, percentage damage (five point scale) [7] | PRE Application ECHCG, percentage damage (five point scale) [8] | PRE Application ALOMY, percentage damage (five point scale) [9] | POST Application SOLNI, percentage damage (five point scale) (Solanum nigrum (SOLNI) [10]) | PRE Application SOLNI, percentage damage (five point scale) (Solanum nigrum (SOLNI) [11]) | PRE Application SETFA, percentage damage (five point scale) (Setaria faberi (SETFA) [12]) |
| --- | --- | --- | --- | --- | --- | --- | --- | --- | --- | --- | --- | --- |
| CCCCn1c(=O)c(C(=O)Nc2nnnn2C)nn(C)c1=O [Compound 1.001] | 5 (5=80-100%) | 5 (5=80-100%) | 5 (5=80-100%) | 5 (5=80-100%) | 5 (5=80-100%) | 5 (5=80-100%) | 5 (5=80-100%) | 5 (5=80-100%) | 5 (5=80-100%) | 5 (5=80-100%) | 5 (5=80-100%) | 5 (5=80-100%) |
| Cn1nnnc1NC(=O)c1nn(C)c(=O)n(-c2ccccc2)c1=O [Compound 1.002] | 5 (5=80-100%) | 5 (5=80-100%) | 5 (5=80-100%) | 5 (5=80-100%) | 5 (5=80-100%) | 5 (5=80-100%) | 5 (5=80-100%) | 5 (5=80-100%) | 5 (5=80-100%) | 5 (5=80-100%) | 5 (5=80-100%) | 5 (5=80-100%) |
| Cn1nnnc1NC(=O)c1nn(C)c(=O)n(-c2cccc(F)c2F)c1=O [Compound 1.003] | 5 (5=80-100%) | 5 (5=80-100%) | 5 (5=80-100%) | 5 (5=80-100%) | 5 (5=80-100%) | 5 (5=80-100%) | 5 (5=80-100%) | 5 (5=80-100%) | 5 (5=80-100%) | 5 (5=80-100%) | 5 (5=80-100%) | 5 (5=80-100%) |
| C=CCn1c(=O)c(C(=O)Nc2nnnn2C)nn(C)c1=O [Compound 1.004] | 4 (4=60-79%) | 5 (5=80-100%) | 4 (4=60-79%) | 4 (4=60-79%) | 5 (5=80-100%) | 4 (4=60-79%) | 5 (5=80-100%) | 4 (4=60-79%) | 3 (3=40-59%) | 5 (5=80-100%) | 5 (5=80-100%) | 2 (2=20-39%) |
| CC(C)Cn1c(=O)c(C(=O)Nc2nnnn2C)nn(C)c1=O [Compound 1.005] | 5 (5=80-100%) | 5 (5=80-100%) | 5 (5=80-100%) | 4 (4=60-79%) | 5 (5=80-100%) | 5 (5=80-100%) | 5 (5=80-100%) | 5 (5=80-100%) | 5 (5=80-100%) | 5 (5=80-100%) | 5 (5=80-100%) | 5 (5=80-100%) |
| CCc1ccc(-n2c(=O)c(C(=O)Nc3nnnn3C)nn(C)c2=O)cc1 [Compound 1.006] | 5 (5=80-100%) | 5 (5=80-100%) | 5 (5=80-100%) | 5 (5=80-100%) | 5 (5=80-100%) | 5 (5=80-100%) | 5 (5=80-100%) | 5 (5=80-100%) | 5 (5=80-100%) | 5 (5=80-100%) | 5 (5=80-100%) | 5 (5=80-100%) |
| C=CCn1nc(C(=O)Nc2nnnn2C)c(=O)n(-c2cccc(F)c2)c1=O [Compound 1.007] | 5 (5=80-100%) | 5 (5=80-100%) | 5 (5=80-100%) | 5 (5=80-100%) | 5 (5=80-100%) | 5 (5=80-100%) | 5 (5=80-100%) | 5 (5=80-100%) | 2 (2=20-39%) | 5 (5=80-100%) | 5 (5=80-100%) | 1 (1=0-19%) |
| Cn1nnnc1NC(=O)c1nn(C)c(=O)n(-c2ccc(F)c(Cl)c2)c1=O [Compound 1.008] | 5 (5=80-100%) | 5 (5=80-100%) | 5 (5=80-100%) | 5 (5=80-100%) | 5 (5=80-100%) | 5 (5=80-100%) | 5 (5=80-100%) | 5 (5=80-100%) | 5 (5=80-100%) | 5 (5=80-100%) | 5 (5=80-100%) | 5 (5=80-100%) |
| CSc1ccc(-n2c(=O)c(C(=O)Nc3nnnn3C)nn(C)c2=O)cc1 [Compound 1.009] | 5 (5=80-100%) | 5 (5=80-100%) | 5 (5=80-100%) | 4 (4=60-79%) | 5 (5=80-100%) | 5 (5=80-100%) | 5 (5=80-100%) | 2 (2=20-39%) | 2 (2=20-39%) | 5 (5=80-100%) | 5 (5=80-100%) | 1 (1=0-19%) |
